Experimental data as given in US20210108199A1, “Treatment for aggressive cancers by targeting C9ORF72” (The Trustees of Columbia University in the City of New York, priority 2017, published 2021).

Assays:
[1] = system: U87 p53 null KO #4 cells; assay: Vacuoles in p53 null cells transfected with HA tagged wtp53; assay type: cell-based; details: U87 p53 null KO #4 cells transfected with HA tagged wtp53
Method: To provide further evidence of p53 involvement in vacuolization, it was tested whether p53 transfection into p53 null cell lines in C9 KD background induced accumulation of vacuoles. […] In FIG. 36A, phase contrast images (40×) are shown of U87 p53 null KO #4 cells that were transfected with HA tagged wtp53 and then treated with control (siCtrl) or C9 (siC9; SEQ ID NO:631) siRNA. The black boxes show the location of the zoomed in images below with black arrows pointing to vacuoles. […] FIG. 36C is a graph that presents quantitation of data from about 100 cells, indicating the number of vacuoles per cell for conditions described above. Statistical significance was assessed by unpaired t-test: NS P>0.05, *P≤0.05, **P≤0.01, ***P≤0.001 ****P≤0.0001.

[2] = system: U87 cells; assay: FACS cell cycle analysis; assay type: cell-based; details: day three
Method: U87 cells were treated with control and C9 siRNA for 3 days. On day 3, cells were fixed in 70% ethanol at −20° C., re-suspended in phosphate-citrate buffer (192 mM Na2HPO4, 4 mM citric acid), and incubated for 30 minutes in PBS containing 10 μg/mL propidium iodide (PI) and 10 μg/mL RNase A. Data were collected on a FACSCalibur™ flow cytometer (Becton Dickinson™). Data analysis was performed using FlowJo™.
To validate the cell viability assays, C9 was knocked down in U87 cells and the cells were analyzed by FACS. […] The bar plots represent the cell cycle measurement (subG1-purple, G2-green, S-red, G1-blue) of three independent biological replicates upon control (siCtrl) or C9 (siC9; SEQ ID NO:631) siRNA. Error bars represent S.E.M.

[3] = system: HeLa cells; assay: Mitochondrial live imaging in HeLa cells; assay type: cell-based; details: vs control
Method: Mitochondrial accumulation then was investigated in other cell lines. C9 KD was performed in HeLa cells, followed by a fluorescent mitochondrial dye for live imaging. […] To study the mitochondrial dysfunction phenotype upon C9 KD in a non-cancer cell line, C9 was knocked down in rat-derived cortical neurons in combination with a mitochondrial stain.

[4] = system: U2OS cells; assay: Western blot of U2OS cells after C9 KD; assay type: cell-based, human
Method: For Western blot analysis, cells were lysed with lysis buffer (20 mM sodium phosphate (pH 7.0), 250 mM NaCl, 30 mM sodium pyrophosphate, 0.1% Nonidet™ P-40, 5 mM EDTA, 10 mM NaF, 0.1 mM Na3VO4, and 1 mM PMSF) supplemented with complete protease inhibitors (Roche™) and homogenized by passage through a 28 gauge needle. Protein concentration was measured with a Bio-Rad™ protein assay dye reagent and results were read using a spectrophotometer (BiophotometerPlus™ by Eppendorf™). Protein extracts were resolved by SDS PAGE on gradient (Thermo Fisher™) or 12% gels. Proteins were then electrotransferred at 350 mA for 80 minutes onto a PVDF membrane (Immobilon-P PVDF). Membranes were blocked with PBST with 5% milk and 1% BSA for 30 minutes. Quantitation of blots was performed Image Studio Lite software (LI-COR Biosciences™).
See FIG. 28, a WB of U2OS cells treated with control and C9 siRNA and probed for PARP1, p-p53 (s15), p53, p-ERK, p21, p-H2AX, using actin as a loading control.

[5] = system: U87 cells; assay: ptfLC3 fluorescent autophagy marker imaging; assay type: cell-based; details: U87 cells transfected with ptfLC3
Method: Cells were plated on coverslips in 60-mm culture dishes, and after 48 hours washed twice with PBS followed by incubation with 4% paraformaldehyde (Sigma™) for 20 minutes. Cells then were washed three times with PBS, incubated with PBS/0.5% Triton™ X-100 for 1½ minutes, washed once with PBS and then blocked with 0.5% bovine serum albumin (Sigma™) in PBS for 30 minutes at room temperature before treatment with 100 μL of the diluted primary antibodies (1:1000) for 1 hour at room temperature. The coverslips were then washed three times with PBS and stained by incubation with 100 μL of diluted (1:100) secondary antibody (1:100). The coverslips were then washed three times with PBS and mounted on coverslips with a mounting media containing DAPI stain (Vectashield™, H-1200). Coverslips were imaged at room temperature (about 22° C.) using 40×, 1.3 NA or 63×, 1.4 NA oil immersion lenses on a confocal microscope (LSM 700; Carl Zeiss™).
To this end, C9 was knocked down in U87 cells and employed a fluorescent autophagy marker ptfLC3 to mark autophagosomes and autophagolysosomes. […] The white arrows show vacuoles and the white box represents a zoom in of the cell area with vacuoles. […] The white box here represents a zoom in of the cell area with vacuoles, nuclei stained with DAPI (blue). FIG. 4B is a WB showing LAMP1 levels after control (siCtrl) and C9 KD (siC9; SEQ ID NO:631).

[6] = system: U87 cells; assay: ROS detection by dihydroethidium; assay type: cell-based; details: day three
Method: ROS detection in U87 cells was performed using 2′,7′-dichlorofluorescin diacetate (Sigma™, D883). Cells were treated with control and siC9 siRNA. After 3 days, cells were washed with phenol red-free DMEM (ThermoFisher™, 21063029). Cells then were incubated with 20 μM DCFDA for 40 minutes at 37° C. Cells then were washed with phenol red-free DMEM. Then signal was read at Ex/Em: 485/535 nm using Synergy H1 Hybrid™ Multi-Mode Microplate reader by Biotek™. Quantitation was done after removal of background. Additionally, dihydroethidium (EMD Millipore™ 309800) was used. U87 cells were treated as described above. At day 3, cells were incubated with DHE for 30 minutes at 37° C. […]
For the above reasons, whether C9 KD may lead to increase ROS production was investigated. […] C9 was knocked down in U87 cells with two independent siRNAs and the ROS levels were measured after KD. […]
For the data presented in FIG. 21, U87 cells were treated with control (siCtrl) and C9 (siC9; SEQ ID NO:631) siRNA and on day three ROS levels measured by DCFDA and dihydroethidium. FIG. 21A presents data for fluorescent intensity between control (siCtrl) and C9 KD (siC9) cells as measured by DCFDA. […] FIG. 21C presents fluorescent intensity quantitation for about 30 cells from the dihydroethidium experiments (n=3). Statistical significance was assessed by an unpaired t-test: NS P>0.05, *P≤0.05, **P≤0.01, ***P≤0.001 ****P≤0.0001. […]

“siC9: siRNA targeting C9 mRNA: UUAAUGAAACAAUAAUCACUC (SEQ ID NO:631; sense) and GUGAUUAUUGUUUCAUUAAUC (SEQ ID NO:632; antisense) (listed as RNA, chemistry not given here)” was tested, and the vacuoles per cell [1] was “significant increase”, the “decrease in G1” value [2] was 4.7 fold and the “increase in S phase” value [2] was 3.3 fold. For the same substance, the “increase in SubG1 phase” value [2] was 3.1 fold, the mitochondrial network organization [3] was “mitochondrial network disorganization” and the CDKN1A/p21 protein levels [4] was “increase in CDKN1A/p21 protein levels”. For the same substance, the PARP1 level [4] was “PARP1 downregulation”, the p53 levels [4] was “increased p53 levels” and the p-ERK [4] was “increases in p-ERK”. For the same substance, the “phosphorylated p53 (on s15)” value [4] was “increases in phosphorylated p53”, the γ-H2AX [4] was “increases” and the “LC3 staining of vacuoles” value [5] was “not stained by LC3”. The fluorescence of autophagolysosomes [5] was “increase fluorescence” and the “ROS (dihydroethidium)” value [6] was “significant upregulation of ROS”.
